The record followed here is US20240189287A1, “PERIPHERALLY RESTRICTED CB1 RECEPTOR BLOCKERS AND USES THEREOF” (BIONANOSIM (BNS) LTD, priority 2021, published 2024).

“Also recorded” adds a separate entry of the source. Read-outs that look alike come from different tables or passages of the source.

For series [1], the system named is DIO (Diet-Induced-Obese) mice. In words: In vivo efficacy study in Diet Induced Obesity (DIO) model. More on the design: species or system C57BL/6J mice. On the procedure:
In vivo efficacy study in Diet Induced Obesity (DIO) model: Male C57BL/6J mice were kept on a high fat diet for 24 weeks. […] Thereafter, metabolic assessment was performed in order to evaluate the efficacy of the treatment. The efficacy was evaluated by measurements of the following parameters: • 1. Body weight and food intake, • 2. Total energy expenditure (TEE) and respiratory quotient (RQ). • 3. Fat and Carbohydrate oxidation (FO and CHO, respectively), • 4. Total ambulation, • 5. Glucose homeostasis, • 6. Hepatic Steatosis and Liver Injury, • 7. Lipid profile, • 8. Kidney function.
Animals: The experimental protocol used is approved by the Institutional Animal Care and Use Committee of the Hebrew University. Male, 25 weeks old, C57BL/6J mice were purchased from Jackson laboratories. Mice were maintained under a 12-h light/dark cycle and fed ad libitum. To maintain diet-induced obesity, C57BL/6J mice were fed with high-fat diet (HFD) (60% of calories from fat, 20% from protein, and 20% from carbohydrates; Research Diet, D12492) for overall 30 weeks.
[…] Body weight and food intake were monitored daily. Total body fat and lean masses were determined by EchoMRI-100H™ (Echo Medical Systems LLC, Houston, TX, USA). 24 h urine was collected 2-4 days before euthanasia using mouse metabolic cages (CCS2000 Chiller System, Hatteras Instruments, NC, USA). At the end of the observation period, mice were euthanized by a cervical dislocation under anesthesia, the kidneys, liver, brain, spleen, fat, and pancreas were removed, and samples were fixed in buffered 4% formalin (for histopathological analysis) or snap frozen (for biochemistry analysis). Trunk blood was collected for determining the biochemical parameters.
Multi-parameter metabolic assessment: Metabolic profile of the mice was assessed by using the Promethion High-Definition Behavioral Phenotyping System
(Sable Instruments, Inc., Las Vegas, NV, USA). Data acquisition and instrument control were performed using MetaScreen software version 2.2.18.0, and the obtained raw data were processed using ExpeData version 1.8.4 using an analysis script detailing all aspects of data transformation. Mice with free access to food and water were subjected to a standard 12 hr light/12 hr dark cycle, which consisted of 48 hr acclimation period followed by 24 hr of sampling. Respiratory gases were measured by using the GA-3 gas analyzer (Sable Systems, Inc., Las Vegas, NV, USA) using a pull-mode, negative-pressure system. Air flow was measured and controlled by FR-8 (Sable Systems, Inc., Las Vegas, NV, USA), with a set flow rate of 2000 mL/min. Water vapor was continuously measured and its dilution effect on O2 and CO2 was mathematically compensated. Effective mass was calculated by [body mass]0.75. Fat oxidation (FO) and carbohydrate oxidation (CHO) were calculated as FO=1.69×VO2−1.69×VCO2 and CHO=4.57×VCO2−3.23×VO2 and expressed as g/d/kg^eff.Mass.
Locomotor activity: Locomotor activity was quantified by the number of disruptions of infrared XYZ beam arrays with a beam spacing of 0.25 cm in the Promethion High-Definition Behavioral Phenotyping System (Sable Instruments, Inc., Las Vegas, NV, USA).
Glucose tolerance (ipGTT) test and insulin sensitivity tests (ipIST): Mice that fasted overnight were injected with glucose (1.5 g/kg, IP), followed by a tail blood collection at 0, 15, 30, 45, 60, 90, 120 min. Blood glucose levels were determined using the Elite glucometer (Bayer, Pittsburgh, PA). Two days later, mice were fasted for 6 hr before receiving insulin (0.75 U/kg, IP; Eli Lilly, DC, USA or Actrapid® vial, novo nordisk A/S, Denmark), and blood glucose levels were determined at the same intervals.
Creatinine clearance was calculated using urine and serum creatinine levels (CCr mL/h=Urine creatinine mg/dL×Urine volume/Serum creatinine mg/dL×24 hr). Fasting blood glucose was measured using the Elite glucometer (Bayer, Pittsburgh, PA). […]

The next series deals with P-gp (MDR1). The series is described as follows: MDR1-MDCK II cell permeation assay (bi-directional permeability, P-gp efflux). It is filed as in vitro ADME. To be noted: dog, MDCK-MDR1, pH 7.4; 2 μM, A to B, 2.5 hours. The procedure, abridged:
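Compounds at 2 μM (DMSO <1%) in HBSS with 10 mM Hepes, pH 7.4, were applied apically or basolaterally to MDR1-MDCKII monolayers. A-to-B and B-to-A transport was run in duplicate with or without 10 μM GF120918 for 2.5 h at 37° C, 5% CO2. Compounds were quantified by LC-MS/MS, and efflux ratios were determined.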

A short description of series [2]: Tissue distribution: brain, plasma and liver levels after oral dosing. It is filed as in vivo, C57BL/6J mice. The protocol: Tissue distribution and pharmacokinetics: Tissue levels of antagonist: 3 male C57BL/6J mice (7-9 weeks, PO group) were used in this study. Mice were fasted prior to administration of test article and had access to food 4 hours post dosing. Appropriate amount of test article was accurately weighted and mixed with the appropriate volume of vehicle to get a clear oral solution. The formulation was prepared on the day of dosing, and mice were dosed via oral gavage up to 4 hr after formulation was prepared. After 1 hour, mice were scarified and about 200 μL blood was collected from cardiac puncture followed by plasma preparation. Brain and liver were removed and further processed. Dose formulation and sample analysis was performed by LC-MS/MS method.
The peripherality of selected BB8 conjugates (BNS) was evaluated in vivo measuring their respective brain, plasma, and liver levels 1 hr following 10 mg/kg oral administration.

Another series addresses hERG potassium channels (Homo sapiens (Human), UniProt Q12809). The series is described as follows: hERG assay, automated patch clamp (SyncroPatch 384PE). It counts as cell-based. As to conditions: for potential for cardiotoxicity (QT prolongation): acceptance criteria IC50>100* Ki; for IC50: whole cell hERG currents. (In general: hERG is a cardiac potassium channel; its block is linked to QT prolongation.)

In series [3] the test system is Salmonella typhimurium (TA98, TA100). To be noted: for increase in reversion over the negative control: TA98 and TA100, with and without S9.
Where [4] appears, read: male, C57BL/6J, mouse, in vivo, po, 10 mg/kg.

hERG potassium channels, sequence (Q12809 whole entry): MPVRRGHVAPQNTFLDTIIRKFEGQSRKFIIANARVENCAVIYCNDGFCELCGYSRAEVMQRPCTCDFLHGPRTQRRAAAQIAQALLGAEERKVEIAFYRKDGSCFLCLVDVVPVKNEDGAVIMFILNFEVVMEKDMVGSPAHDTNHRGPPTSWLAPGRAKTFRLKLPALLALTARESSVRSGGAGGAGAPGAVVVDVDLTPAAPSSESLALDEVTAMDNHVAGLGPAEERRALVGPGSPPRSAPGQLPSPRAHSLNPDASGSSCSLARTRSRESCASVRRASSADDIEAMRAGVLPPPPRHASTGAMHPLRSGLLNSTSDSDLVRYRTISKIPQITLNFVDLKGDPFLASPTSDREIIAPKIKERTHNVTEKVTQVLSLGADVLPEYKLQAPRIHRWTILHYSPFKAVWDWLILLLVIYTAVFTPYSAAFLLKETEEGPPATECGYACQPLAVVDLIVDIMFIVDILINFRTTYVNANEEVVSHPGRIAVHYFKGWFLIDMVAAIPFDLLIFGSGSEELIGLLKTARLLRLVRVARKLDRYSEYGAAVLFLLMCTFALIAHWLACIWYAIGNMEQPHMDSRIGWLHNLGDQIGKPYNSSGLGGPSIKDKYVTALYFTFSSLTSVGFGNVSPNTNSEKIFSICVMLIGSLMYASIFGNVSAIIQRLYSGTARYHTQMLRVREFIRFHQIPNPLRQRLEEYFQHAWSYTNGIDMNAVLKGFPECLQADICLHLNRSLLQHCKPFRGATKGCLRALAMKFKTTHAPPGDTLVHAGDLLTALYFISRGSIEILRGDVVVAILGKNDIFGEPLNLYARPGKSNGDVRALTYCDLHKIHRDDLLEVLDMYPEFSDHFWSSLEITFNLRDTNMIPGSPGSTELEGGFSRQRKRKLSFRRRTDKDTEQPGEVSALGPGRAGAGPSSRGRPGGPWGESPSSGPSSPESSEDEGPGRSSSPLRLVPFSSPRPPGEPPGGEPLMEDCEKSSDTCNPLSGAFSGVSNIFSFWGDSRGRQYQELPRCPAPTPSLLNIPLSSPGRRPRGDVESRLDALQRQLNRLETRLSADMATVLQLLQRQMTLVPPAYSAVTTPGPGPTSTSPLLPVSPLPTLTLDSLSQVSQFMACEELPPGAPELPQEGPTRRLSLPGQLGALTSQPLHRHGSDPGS

For orientation: Papp means a coefficient for how fast a substance crosses the barrier. Lower therefore signals poor permeation. What is called Hill slope is a measure of the steepness of the concentration-response curve. In general, IC50 refers to the concentration that gives 50% inhibition. Low values mean inhibition by little substance, high ones a need for much substance. Consider `O=S(=O)(NC1CCCOc2c1nn(-c1ccccc1Cl)c2-c1ccc(Cl)cc1)c1ccc(Cl)cc1` (stereo not drawn) [BNS808, 4-chloro-N-[2-(2-chlorophenyl)-3-(4-chlorophenyl)-5,6,7,8-tetrahydrooxepino[3,2-c]pyrazol-8-yl]benzenesulfonamide], for which, in series [1] (1 mg/kg daily PO, DIO mice on HFD, after 24 days), the “reduction of the body weight” value is reported as around 15%. Also, the ambulatory activity entry in series [1] (1 mg/kg/day continued PO, DIO mice) was “did not affect”. The compound also showed a Papp at 2.5 h, 2 μM in the series with P-gp (MDR1) of 0.26 ×10⁻⁶ cm/s. Moreover, in series [2] (1 h post 10 mg/kg oral administration, C57BL/6J male mice), the Liver/Plasma ratio is 13.0. Also, the Kp at 1 h in series [2] (mouse, in vivo, 1 h post 10 mg/kg oral administration, C57BL/6J male mice, read-out: Brain/Plasma ratio) is 1.07. On hERG potassium channels, the Hill slope is 0.89, the “potential for cardiotoxicity (QT prolongation)” value is “low” and half-maximal inhibition (IC50) required 5.39 µM. Besides, in series [3], the “toxicity on AMES strains” value is “no toxicity” and the “increase in reversion over the negative control” value is listed as below 2 fold. Also, the “AMES result (positive/negative)” value in series [3] (TA98, S9 no) is given as “negative”. Moreover, the “AMES result (positive/negative)” value in series [3] (TA98, S9 yes) is “negative”. The “AMES result (positive/negative)” value in series [3] (TA100, S9 no) is recorded as “negative”. Besides, in series [3] (TA100, S9 yes), the “AMES result (positive/negative)” value is given as “negative”.

Regarding `Cc1ccc(C)c(OCCCC(C)(C)C(=O)NC2CCCOc3c2nn(-c2ccccc2Cl)c3-c2ccc(Cl)cc2)c1` (stereo not drawn) [BNS822, N-[2-(2-chlorophenyl)-3-(4-chlorophenyl)-5,6,7,8-tetrahydrooxepino[3,2-c]pyrazol-8-yl]-5-(2,5-dimethylphenoxy)-2,2-dimethyl-pentanamide], the weight loss in series [1] (20 mg/kg continued administration, DIO mice) stood at 20%. In series [1] (20 mg/kg/day PO, DIO mice), the body weight entry is “significantly reduced” and the food intake result is listed as “significant decrease”. In addition, in series [1] (20 mg/kg/day PO, DIO/HFD mice), the “circulating fed insulin (plasma) levels” value is on record as “significantly lower; also recorded: significant reductions”; the “glucose levels in fed and fasting conditions” value is listed as “no change; also recorded: no significant changes”; the “glucose tolerance (GTT, AUC)” value was “improved; also recorded: significant reductions”; the “insulin sensitivity (ITT)” value is “no improvement; also recorded: no significant changes”. In addition, in series [1] (20 mg/kg/day PO, HFD mice), the ALT levels result is listed as “Significant reductions”, the “fat vacuoles deposition in the liver” value is given as “reduction”, the “liver TG content” value is recorded as “Significant reductions” and the liver cholesterol entry is on record as “not”. For the same compound, in series [2] (setting [4]), the Kp at 1 h was below 0.02 and the concentration at 1 h was found to be 1.34 ng/g. In addition, the Brain/Plasma ratio in series [2] (male, C57BL/6J, mouse, in vivo, po, 10 mg/kg, 1 h) is below 0.02. In addition, on hERG potassium channels, the “potential for cardiotoxicity (QT prolongation)” value is recorded as “low” and the IC50 was above 30 µM. For the same compound, in series [3], the “toxicity on AMES strains” value was “no toxicity” and the “increase in reversion over the negative control” value is given as below 2 fold. Besides, in series [3] (TA98, S9 no), the “AMES result (positive/negative)” value is on record as “negative”. Moreover, in series [3] (TA98, S9 yes), the “AMES result (positive/negative)” value is given as “negative”. Moreover, in series [3] (TA100, S9 no), the “AMES result (positive/negative)” value is on record as “negative”. In addition, the “AMES result (positive/negative)” value in series [3] (TA100, S9 yes) was “negative”.
